Results reported in patent US20210002725A1, “METHODS FOR THE DIAGNOSIS OF METABOLIC DISORDERS USING EPIMETABOLIC SHIFTERS, MULTIDIMENSIONAL INTRACELLULAR MOLECULES, OR ENVIRONMENTAL INFLUENCES” (Berg LLC, priority 2009, published 2021).
Several values for one entry are separate records, joined by “and”; a condition that tells them apart may be missing. Equal entries are not always repeated. Entries after “also recorded” stand apart in the source; their conditions may differ.

Tests used:
SCC cells = assay: Real-time PCR Heat Shock Protein Array; assay type: cell-based; details: 100 μM Q10
Source text: The control cells were untreated cells.
Heat Shock Arrays were run for SCC cells and the data of regulated genes is summarized below in Table 13.

[1] = test system: Lactate Dehydrogenase (LDH); assay: Western blot of Lactate Dehydrogenase levels in cells treated with Coenzyme Q10; assay type: cell-based, human; details: HepG2, 5 g, 24 h, 50 μM
Description: The samples were processed and run on a 4-12% Bis-Tris Novex NuPAGE gel as described above. The gels were run, transferred and stained essentially as described above.
After transfer each blot was dried for 15-20 minutes, activated with methanol for 5 seconds, washed with water for 5 minutes, and TBST for 15 minutes. The blots were blocked for 1 hour with 5% blocking reagent in TBS-T at room temperature and then washed 3 times with TBS-T (1×-15′; 2×5′ each) and probed with the primary antibody for Lactate Dehydrogenase (abcam ab2101; polyclonal) in 5% BSA (at 1:1000 dilutions) by incubation overnight at 4 deg C. with shaking. After the overnight incubation with primary antibody for Lactate Dehydrogenase, the blots were washed 3 times with TBS-T (1×-15′; 2×5′ each) and probed with the secondary antibody (rabbit antigoat; 1:10,000 dilution) for 1 h at room temperature. After 1 h of incubation with secondary antibodies, the blots were washed 3 times with TBS-T (1×-15′; 2×5′ each) and then incubated with ECF reagent for 5 mins and then each blot scanned with 5100 Fuji Laser scanner at 25 uM resolution, 16 bit, green laser, at 400V and at 500 V. […]
The levels of LDH and PDH were determined by probing the blots successively with primary antibodies for LDH and PDH, essentially as described above. […]

key proteins = assay: Summary of key proteins modulated by Q10
Bcl2 = Bcl2 level after administration of CoQ-10 in the presence of VEGF; assay type: cell-based
Source text: The term “Multidimensional Intracellular Molecule (MIM)”, is an isolated version or synthetically produced version of an endogenous molecule that is naturally produced by the body and/or is present in at least one cell of a human. A MIM is characterized by one or more, two or more, three or more, or all of the following functions. MIMs are capable of entering a cell, and the entry into the cell includes complete or partial entry into the cell, as long as the biologically active portion of the molecule wholly enters the cell. MIMs are capable of inducing a signal transduction and/or gene expression mechanism within a cell. MIMs are multidimensional in that the molecules have both a therapeutic and a carrier, e.g., drug delivery, effect. MIMs also are multidimensional in that the molecules act one way in a disease state and a different way in a normal state. […] Preferably, MIMs selectively act in cells of a disease state, and have substantially no effect in (matching) cells of a normal state. Preferably, MIMs selectively renders cells of a disease state closer in phenotype, metabolic state, genotype, mRNA/protein expression level, etc. to (matching) cells of a normal state.

Description for SK-MEL-28 mitochondria: The cells were harvested by washing and scraping the cells from T-160 flasks (4 for each time point). The cells were collected by centrifugation and the pellets flash frozen and stored at −80° C. The cell pellets were resuspended and ruptured using a 2 mL Dounce homogenizer. The reagents and method were obtained from a Mitochondria Isolation Kit for Cultured Cells (MitoSciences, Cat #MS852). The resultant mitochondria samples were divided into 75 μL aliquots (4-5 aliquots per sample) and stored at −80° C.
The samples were subjected to 2-D electrophoresis (in duplicate). Analysis of 525 protein spots in the comparative study was performed, comparing the control samples against the other time point samples (FIG. 11).

COC1=C(OC)C(=O)C(C/C=C(\C)CC/C=C(\C)CC/C=C(\C)CC/C=C(\C)CC/C=C(\C)CC/C=C(\C)CC/C=C(\C)CC/C=C(\C)CC/C=C(\C)CCC=C(C)C)=C(C)C1=O [Q10, Coenzyme Q10]
Regulation (mRNA) at 6 hours (SCC cells): Down regulated | Regulation (mRNA) at 24 hours (SCC cells): Down regulated | Lactate Dehydrogenase Normalized Volume [1]: 7900 | Key proteins modulated: Apoptotic response (key proteins): Bcl-xl, Bcl-xS, BNIP-2, Bcl-2, Birc6,; also recorded: Bcl-2-L11 (Bim), XIAP, BRAF, Bax,; also recorded: c-Jun, Bmf, PUMA, cMyc | Key proteins modulated: Biosynthetic pathway (key proteins): COQ1, COQ3, COQ6, prenyltransferase, and 4-hydroxybenzoate | Key proteins modulated: Oxidative phosphorylation metabolism (key proteins): Cytochrome c, complex I, complex II,; also recorded: complex III, complex IV, | Key proteins modulated: Pentose Phosphate Pathway (key proteins): transaldolase 1 | Key proteins modulated: Transcription factors (key proteins): HNF4alpha | level of Bcl2 (Bcl2; melanoma cell, in the presence of VEGF): decreased level of Bcl2 | levels of Bcl2 (Bcl2; normal fibroblast, co-administration with VEGF): no effect | Response at later time points (19, 48 hr) (SK-MEL-28 mitochondria; 100 μM Q10): drops more for 19; also recorded: back to normal at 48; also recorded: Up at 19 and 48 hr; also recorded: Up only at 19 hr; also recorded: drop to low levels | Response (direction) at 6 hr (SK-MEL-28 mitochondria; 100 μM Q10, 6 hr): Down and Up
